Laboratory results reported in patent publication US9167820B2, “Anti-biofilm compounds” (priority 2011, dated 2015).

Assays:
[1] = test system: P. gingivalis adherence to streptococci (S. gordonii DL-1); experiment: Inhibition of P. gingivalis adherence to streptococci, two species biofilm culture model (confocal microscopy); format: cell-based; settings: for P. gingivalis adherence to streptococci at 20 μM: 20 μM compound; for inhibition of P. gingivalis adherence, dose dependence: tested at final concentrations of 5, 20 or 60 μM, 24 hrs anaerobic incubation; for P. gingivalis adherence to streptococci at 5 μM: 5 μM compound
Description: Compounds 25, 27a, 34, 35 and 42 were tested to determine if they inhibited P. gingivalis adherence to streptococci using a two species biofilm culture model. Compounds of the invention (e.g. compounds of formula I) can also be tested using this method. A mid-exponential phase culture of S. gordonii DL-1 was harvested by centrifugation and the cells were suspended in phosphate buffered saline (PBS) at a density of 10^9 cfu/ml. A 1 ml aliquot was labeled with hexidium iodide (30 μM) for 15 minutes with gentle shaking. After washing three times with PBS, streptococci were suspended in growth medium and 100 μl was added to a 12 well microtiter plate (Grace Bio-Labs) and incubated anaerobically for 24 hrs.
P. gingivalis cells from an exponential culture were washed with PBS and labeled by reacting with 4 μg/ml carboxyfluorescein-succinyl ester for 30 minutes at 4° C. After washing three times with PBS, the cells were suspended in PBS at a density of 2×10^7 cfu/ml. The test compounds were dissolved in absolute ethanol to a final concentration of 30 mM and each was diluted into 100 μl P. gingivalis to final concentrations of 5, 20 or 60 μM and incubated for 30 minutes. After removal of unbound streptococci from the micotiter plate, P. gingivalis samples were then added to each well and incubated anaerobically for 24 hrs. A control well contained P. gingivalis that was pre-incubated with PBS alone.
Adherence of P. gingivalis to streptococci was analyzed using confocal laser scanning microscopy on an Olympus FluoView 500 inverted confocal microscope. Image stacks were acquired using Olympus FluoView software and rendered into 3 dimensional projections using Volocity Image Analysis software, where S. gordonii is depicted in red and P. gingivalis is shown in green/yellow. […] Compound 46 reduced P. gingivalis adherence to streptococci by 25% at 25 μM and by approximately 60% at 50 μM.

[2] = test system: P. gingivalis biofilms on streptococci; experiment: Inhibition/disruption of P. gingivalis biofilms on streptococci by AgI/II-derived peptide; format: cell-based
Description: The plate assays above allow a quick examination of the kinetics of Mfa binding and inhibition of bacterial adherence. To determine if the Mfa-catalyzed compounds selected above inhibit the formation of P. gingivalis biofilms, or alternatively are capable of disrupting a pre-existing biofilm, dual species P. gingivalis-S. gordonii biofilms are grown and analyzed as previously described by Daep et al. (Daep, C. A., James, D. M., Lamont, R. J. and Demuth, D. R. 2006. Structural Characterization of Peptide-Mediated Inhibition of P. gingivalis Biofilm Formation. Infect. Immun. 74: 5756-5762; Daep, C. A., Lamont R. J. and Demuth, D. R. 2008. Interaction of P. gingivalis with oral streptococci requires a motif that resembles the eukaryotic nuclear receptor box protein-protein interaction domain. Infect. Immun. 76:3272-3280) using an open flow biofilm culture system. To determine if the inhibitors are capable of disrupting existing P. gingivalis-streptococcal biofilms, pre-formed biofilms are incubated with medium containing the inhibitor and analyzed as above. The inhibitors identified from the assays above are analyzed for in vivo efficacy in preventing P. gingivalis colonization in a mouse model of periodontitis.

P. gingivalis = experiment: Modified Baker mouse model of periodontitis (S. gordonii then P. gingivalis infection), alveolar bone loss; format: in vivo, Balb/cByJ mice; settings: mice infected with S. gordonii and 10^7 cfu P. gingivalis; peptide added to the inoculum
Text: FIG. 6. Alveolar bone loss induced in Balb/cByJ mice in the presence and absence of BAR peptide. Sham infected animals were inoculated with CMC slurry without bacteria.
To determine how effectively the inhibitors limit or prevent P. gingivalis colonization in vivo, a modified Baker mouse model of periodontitis is used. The model is modified by first infecting with and establishing S. gordonii in the oral cavity of Balb/cByJ mice then subsequently challenging with P. gingivalis. In the presence of S. gordonii, a persistent infection of P. gingivalis (detected by 16S rDNA PCR 47 days post infection) can be established using an inoculum of 10^7 cfu. […] Thus, preventing P. gingivalis colonization of mice reduces alveolar bone loss.

Molecule: [N-]=[N+]=NCc1nc(-c2ccccc2)c(-c2ccccc2)o1 [Compound 42, 2-(Azidomethyl)-4,5-diphenyloxazole]
- P. gingivalis adherence to streptococci at 20 μM [1]: completely inhibited adherence
- inhibition of P. gingivalis adherence, dose dependence [1]: dose dependent inhibition

Molecule: c1ccc(-c2nc(-c3ccccc3)c(-c3ccccc3)o2)cc1 [Compound 27a]
- P. gingivalis adherence to streptococci at a concentration of 60 ([1]; concentration of 60 (unit not given)): completely blocked adherence
- inhibition of P. gingivalis adherence, dose dependence [1]: dose dependent inhibition

Molecule: [N-]=[N+]=Nc1cccc(-c2nc(-c3ccccc3)c(-c3ccccc3)o2)c1 [Compound 35, 2-(3-azidophenyl)-4,5-diphenyloxazole]
- P. gingivalis adherence to streptococci at 20 μM [1]: significantly reduced adherence
- P. gingivalis adherence to streptococci at 60 μM ([1]; 60 μM compound): completely blocked

Molecule: CC(C)CNc1nc(NCC(C)C)nc(-c2ccccc2)n1 [Compound 46, N^2,N^4-Diisobutyl-6-phenyl-1,3,5-triazine-2,4-diamine]
- reduction of P. gingivalis adherence to streptococci at 25 μM ([1]; 25 μM compound): 25%
- reduction of P. gingivalis adherence to streptococci at 50 μM ([1]; 50 μM compound): approximately 60%

Molecule: LEAAPKKVQDLLKKANITVKGAFQLFS [BAR peptide]
- inhibition of P. gingivalis adherence and formation of biofilms on streptococcal substrates [2]: potently inhibits
- disruption of existing P. gingivalis biofilms ([2]; pre-existing biofilms): capable of disrupting existing P. gingivalis biofilms
- IC50 ([2]; read-out: I50, inhibition of development of P. gingivalis biofilms on streptococci): 1300 nM
- alveolar bone loss (P. gingivalis): reduced to near sham infected levels

Molecule: [N-]=[N+]=Nc1ccc(-c2nc(-c3ccccc3)c(-c3ccccc3)o2)cc1 [Compound 34, 2-(4-azidophenyl)-4,5-diphenyloxazole]
- P. gingivalis adherence to streptococci at 5 μM [1]: significantly reduced
- P. gingivalis adherence to streptococci at 20 μM [1]: completely blocked adherence

Molecule: Cc1nc(-c2ccccc2)c(-c2ccccc2)o1 [Compound 25, 2-Methyl-4,5-diphenyloxazole]
- P. gingivalis adherence to streptococci at 5 μM [1]: completely inhibited
